Test results from patent US20070212712A1, “Methods for identifying modulators of hedgehog autoprocessing” (priority 2005, published 2007).

System: Shh-N signaling
Assay: Autoprocessing-independent Shh-N signaling assay (Gli-luciferase, control)
Assay type: cell-based, mouse
Details: 1 μM KAAD-cyclopamine
Method: This cell-based assay (FIGS. 1A and 1B) made use of Hh-responsive 3T3 mouse cells stably transfected with a Shh plasmid expressing full length Shh protein that undergoes autoprocessing to produce functionally active Shh protein. Cells incubated with pre-spliced N-Shh protein were used as a control. Shh signaling was assayed in control and treated cells using with dual luciferase reporter assay of luciferase activity expressed from an integrated copy of a Gli-luciferase reporter gene linked to of 8 tandem repeats of Gli transcription factor-binding sites, normalized to activity of a Renilla gene under the control of minimum TK promoter, to monitor toxicity and cell survival. Inhibition was confirmed by Western blot analysis of Hh autoprocessing (FIG. 2). Additional cell-based assays for testing the activities of candidate Hh autoprocessing inhibitors in blocking full-length Hh signaling include the measurement of Hh target gene expression (Patched, Gli , IGF2, N-myc; for example, via a luciferase-based assay) and chondrocyte differentiation of 10T½ cells. Persons skilled in the art will note that the above assays are also suitable for use in a cell-free assay system.

Q: CC1=C2C[C@H]3[C@@H](CC=C4CC(=O)CC[C@@]43C)[C@@H]2CC[C@]12O[C@@H]1C[C@H](C)CN(CCNC(=O)CCCCCNC(=O)CCc3ccccc3)[C@H]1[C@H]2C [KAAD-cyclopamine] was tested. Which “Effect on Gli-luciferase activity in response to Shh-N” value did it give?
A: The value was “inhibited Gli-luciferase activity”.
